In patent publication US10596109B2 (Abela Pharmaceuticals, Inc., priority 2009, dated 2020):
Where two headings read alike, the source gives them in different places.

How the values were obtained:
[1] = test system: S. pyogenes; assay: Bacterial viability by bioluminescent ATP assay, 18 hours culture; conditions: MSM alone at 8%
[2] = test system: S. pneumonia; assay: Bacterial viability by bioluminescent ATP assay, 7 hours culture
[3] = test system: S. pneumonia; conditions: Streptococcus pneumonia, 7 h
[4] = test system: S. pyogenes; conditions: Streptococcus pyogenes, 18 h

CS(C)(=O)=O [MSM, Methylsulfonylmethane]
Reduction in bacterial viability (estimated) [1]: approximately 89% | Reduction in bacterial viability ([2]; MSM 5% alone): ~5% | S. pneumonia viability ([2]; MSM 10%): 48.57% | S. pneumonia viability ([2]; MSM 20%): 39.08%

C[S+](C)[O-] [DMSO, Dimethyl sulfoxide]
S. pneumonia viability ([3]; 5 %): 75.45% | S. pneumonia viability ([3]; 10 %): 40.18% | S. pyogenes viability ([4]; 0.63 %): 100% | S. pyogenes viability ([4]; 1.25 %): 100% | S. pyogenes viability ([4]; 10 %): 14.50% | S. pyogenes viability ([4]; 20 %): 5.14% | S. pyogenes viability ([4]; […]): 100% | Reduction in bacterial viability ([2]; DMSO 5% alone): approximately 25%
